Test results taken from PubChem BioAssay (NCI).
Values joined by “and” are separate entries in the source; they are usually repeats but may differ in a detail not shown here. Equal values may be shown once.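 Cells were grown in 96-well plates and exposed to each compound for 48 hours at five concentrations; endpoints were interpolated linearly between bracketing concentrations, or set to the highest concentration if not reached. GI50 marks 50% less growth. TGI marks complete inhibition of growth.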

Legend:
Assay in all cases: NCI anticancer screen, dose series, 48 h
ACHN renal = system: ACHN renal
SNB-19 CNS = system: SNB-19 CNS
DU-145 prostate = system: DU-145 prostate
MDA-N = system: MDA-N
SK-MEL-28 melanoma = system: SK-MEL-28 melanoma
HCC-2998 colon = system: HCC-2998 colon
EKVX NSCLC = system: EKVX NSCLC
OVCAR-3 ovarian = system: OVCAR-3 ovarian
HOP-92 NSCLC = system: HOP-92 NSCLC
A498 renal = system: A498 renal

Row | SMILES | TGI (ACHN renal) [µM] | TGI (SNB-19 CNS) [µM] | TGI (DU-145 prostate) [µM] | TGI (MDA-N) | TGI (SK-MEL-28 melanoma) | TGI (HCC-2998 colon) | TGI (EKVX NSCLC) [µM] | TGI (OVCAR-3 ovarian) | TGI (HOP-92 NSCLC) | TGI (A498 renal) | GI50 (DU-145 prostate) | GI50 (MDA-N) | GI50 (SK-MEL-28 melanoma) | GI50 (OVCAR-3 ovarian)
1 | Oc1ccccc1/C=N/N1C(=S)N(c2ccccc2)C(=Nc2ccccc2)C1=Nc1ccccc1 | 17.5 | 20.7 | > 68.3 | > 52.1 µM | 80.5 µM | > 78.2 µM | 32.2 | 28.2 µM | 16.3 µM | 17.2 µM | – | – | – | –
2 | O=C(O)COc1cccc2ccccc(=O)c12 | > 100 | > 100 | > 100 | > 100 µM | > 100 µM | > 100 µM | > 100 | > 100 µM | > 100 µM | > 100 µM | – | – | – | –
3 | COC(=O)c1cc(OCc2cc(OCc3ccc(Br)cc3)cc(OCc3ccc(Br)cc3)c2)cc(OCc2cc(OCc3ccc(Br)cc3)cc(OCc3ccc(Br)cc3)c2)c1 | > 100 | > 100 | > 100 | > 100 µM | > 100 µM | > 100 µM | > 100 | > 100 µM | > 100 µM | > 100 µM | – | – | – | –
4 | COc1ccc(-c2c(C#N)c(N)n(C3OC(COC(C)=O)C(OC(C)=O)C(OC(C)=O)C3OC(C)=O)c(=S)c2C#N)cc1 (centres undefined) | > 100 | > 100 | > 100 | > 100 µM and 28.2 µM | > 100 µM and 32.7 µM | > 100 µM and 38.2 µM | > 100 | > 100 µM and 32.3 µM | 82.8 µM and 49.4 µM | 91.4 µM and 63.5 µM | 84.2 µM and 34 µM | 58.3 µM and 15 µM | 91.5 µM and 18.6 µM | 44.4 µM and 15.1 µM
5 | NCCCCNCCCNC(=O)c1csc(-c2nc(CCN)sc2Cl)n1 | > 100 | > 100 | > 100 | > 100 µM | > 100 µM | > 100 µM | > 100 | > 100 µM | 79.5 µM | > 100 µM | – | – | – | –
6 | O=[N+]([O-])c1cc(C2ON=C(c3ccccc3)N2C23CC4CC(CC(C4)C2)C3)ccc1Cl (centres undefined) | > 100 | > 100 | > 100 | > 100 µM | > 100 µM | > 100 µM | > 100 | > 100 µM | > 100 µM | > 100 µM | – | – | – | –
7 | N#C[C@H](c1nc2ccccc2[nH]1)c1nc2ccccc2nc1Cl | > 46 | 38.8 | 4.09 | > 62.9 µM | 49 µM | > 60.9 µM | 30 | > 100 µM | > 75.6 µM | > 60.6 µM | – | – | – | –
8 | NC(=O)NC(=O)c1cccc(C(=O)NC(N)=O)n1 | > 100 | > 100 | > 100 | > 100 µM | > 100 µM | > 100 µM | > 100 | > 100 µM | > 100 µM | > 100 µM | – | – | – | –
9 | CC1(C)C/C=C\CCC(O)C(O)CCC(C)(C)C1=O (centres undefined) | > 100 | > 100 | > 100 | > 100 µM | > 100 µM | > 100 µM | > 100 | > 100 µM | > 100 µM | > 100 µM | – | – | – | –
10 | CC1=NN(c2cccc(S(=O)(=O)O)c2)C2(C1)SCC(=O)N2c1nc2ccccc2s1 (centres undefined) | > 100 | > 100 | > 100 | > 100 µM | > 100 µM | > 100 µM | > 100 | > 100 µM | > 100 µM | > 100 µM | – | – | – | –
11 | COC(=O)CC(c1ccccc1)C(C#N)(OP1(=O)OC(c2ccccc2)C(C)N1C)c1ccccc1 (centres undefined) | > 100 | > 100 | > 100 | > 100 µM | > 100 µM | > 100 µM | > 100 | > 100 µM | > 100 µM | > 100 µM | – | – | – | –
12 | COc1ccc(/C=C2/C(=O)C(c3ccccc3)N(c3ccccc3)C2=O)cc1OC (centres undefined) | > 10 | > 10 | > 10 | > 10 µM | > 10 µM | > 10 µM | > 10 | > 10 µM | > 10 µM | 2.75 µM | – | – | – | –
13 | Cc1nc2ccccc2n1Cc1ccc(NC(=S)NC2CCCCC2)cc1 | 44.4 | > 100 | > 100 | > 100 µM | > 100 µM | > 100 µM | > 92.9 | > 70.3 µM | > 100 µM | > 100 µM | – | – | – | –
14 | C[C@@H](Br)[C@@H]1CC[C@H]2c3[nH]c4ccccc4c3CCN2C1 | > 100 | 43.9 | > 100 | 44 µM | > 100 µM | 31.3 µM | > 100 | 42.4 µM | 65.2 µM | > 100 µM | – | – | – | –
15 | C=CCOC1=C(OC(C)=O)C(C2COC(C)(C)O2)OC1=O (centres undefined) | 32.5 | > 100 | > 100 | > 100 µM | 46.7 µM | > 100 µM | 39.9 | 31.9 µM | 34.5 µM | > 100 µM | – | – | – | –
16 | O=C1CCCC1C(O)(C(F)(F)Cl)C(F)(F)Cl (centres undefined) | > 10 | > 10 | > 10 | > 10 µM | > 10 µM | > 10 µM | > 10 | > 10 µM | > 10 µM | > 10 µM | – | – | – | –
17 | CC(=O)Oc1ccc(C2SCc3nc4ccccc4n32)cc1 (centres undefined) | > 100 | > 100 | > 100 | > 63.8 µM | > 100 µM | 69 µM | > 100 | > 100 µM | > 100 µM | 73.8 µM | – | – | – | –
